Broadly, the IC50 is the midpoint of a concentration-inhibition curve.

Where only a bound is given, the exact number is not on record here.

In one data set the test system is HCT-15. Nature of the data set: Antiproliferative activity against multidrug-resistant human HCT-15 cells assessed as reduction in cell viability. Format: functional, cell-based.
For a further data set, the system named is HCT-116. Description: Antiproliferative activity against multi-drug - resistant human HCT-116 cells assessed as reduction in cell viability. Format: functional, cell-based.
Data set [1] relates to A549. Description: Cytotoxicity activity against human A549 cells assessed as reduction in cell viability by SRB assay. Format: functional, cell-based. In general terms: Sulforhodamine B stains cellular protein and so reports cell mass.
Data set [2] deals with HT-29. Description: Cytotoxicity activity against human HT-29 cells assessed as reduction in cell viability by SRB assay. Format: functional, cell-based.
For data set [3], the system named is KB. Nature of the data set: Cytotoxicity against human KB cells assessed as reduction in cell viability measured after 48 hrs by MTT assay. Type of data set: functional, cell-based. In general terms: Tetrazolium assays rely on reduction of a dye to a coloured formazan, in cell work by metabolically active cells.
Data set [4] can be described thus: Cytotoxicity against human HUVEC cells assessed as reduction in cell viability incubated for 2 hrs by MTT assay. Format: toxicity, cell-based.
Data set [5] relates to KB. Description: Antiproliferative activity against human KB cells assessed as reduction in cell growth incubated for 2 days by MTT assay. Type of data set: functional, cell-based. As to conditions: 48 h.
The nature of data set [6]: Cytotoxicity against human hypertrophic scar Fibroblast cells assessed as inhibition of cell growth incubated for 2 hrs by MTT assay. Format: toxicity, cell-based.
A further data set concerns K562/A02. Description: Antiproliferative activity against human K562/A02 cells assessed as reduction in cell viability measured after 2 days by MTT assay. Format: functional, cell-based. As to conditions: K562/A02, 48 h.
The subject of data set [7] is A549. Description: Antiproliferative activity against multi-drug resistant human A549 cells assessed as reduction in cell viability. Format: functional, cell-based.
The subject of the next data set is K562/Adr. Nature of the data set: Cytotoxicity activity against doxorubicin-resistant human K562/Adr cells assessed as reduction in cell viability measured after 72 hrs by CCK-8 assay. Type of data set: functional, cell-based.
Data set [8] concerns K562. Nature of the data set: Antiproliferative activity against human K562 cells assessed as reduction in cell growth measured after 24 hrs by CCK-8 assay. Format: functional, cell-based. The note with it: K562, 24 h.
Data set [9] concerns K562. Description: Cytotoxicity activity against […] human K562 cells assessed as reduction in cell viability measured after 72 hrs by CCK-8 assay. As to conditions: K562, 72 h. Type of data set: functional, cell-based.
A further data set concerns A2780. Description: Antiproliferative activity against human A2780 cells assessed as inhibition of cell proliferation measured after 24 hrs by MTT assay. As to conditions: A2780, 24 h. Format: functional, cell-based.
Data set [10] has as its system NCI-H1650. Description: Antitumor activity in human NCI-H1650 cells xenografted Sprague-Dawley mouse at 40 mg/kg assessed as tumor growth inhibition administered for 5 days. Type of data set: functional. Set-up: scale not given: the % may be the effect or the level left. The note with it: time 5 day. Background: In xenograft studies the graft and the host belong to different species.

The next data set relates to PC-9. Nature of the data set: Antitumor activity in gefitinib-resistant human PC-9 cells xenografted Sprague-Dawley mouse at 40 mg/kg assessed as tumor growth inhibition administered for 5 days. As to conditions: time 5 day. Also on record: scale not given: the % may be the effect or the level left. Format: functional.
The subject of the next data set is NCI-H460. Description: Antitumor activity in human NCI-H460 cells xenografted […] mouse at 40 mg/kg assessed as tumor growth inhibition. Type of data set: functional. Also on record: scale not given: the % may be the effect or the level left.
In data set [11] the test system is NCI-H1650. Description: Cytotoxicity activity against drug-sensitive human NCI-H1650 cells assessed as reduction in cell viability measured after 72 hrs by MTT assay. Type of data set: functional, cell-based. As to conditions: NCI-H1650, 72 h.
The test system of the next data set is NCI-H1975. Description: Antitumor activity in human NCI-H1975 cells xenografted Sprague-Dawley mouse at 40 mg/kg assessed as tumor growth inhibition administered for 5 days. Type of data set: functional. Set-up: scale not given: the % may be the effect or the level left. The note with it: time 5 day.
For another data set, the system named is CCRF-CEM. Nature of the data set: Cytotoxicity against drug-sensitive human CCRF-CEM cells assessed as reduction in cell viability measured after 72 hrs by MTT assay. Type of data set: functional, cell-based.
The next data set concerns PC-3. Description: Cytotoxicity activity against human PC-3 cells assessed as reduction in cell viability by MTT assay. Format: functional, cell-based.
Another data set deals with CWR22R. Description: Cytotoxicity activity against human 22Rv1 assessed as reduction in cell viability by MTT assay. Format: functional, cell-based.
The test system of data set [12] is HT-29. Nature of the data set: Cytotoxicity activity against human HT-29 cells assessed as reduction in cell growth measured after 72 hrs by MTT assay. As to conditions: HT-29, 72 h. Type of data set: functional, cell-based.
Data set [13] has as its system K562. Description: Cytotoxicity against human K562 cells assessed as reduction in cell viability incubated for 72 hrs by MTT assay. Format: functional, cell-based. The note with it: K562, 72 h.
In the next data set the test system is HepG2. Description: Cytotoxicity activity against human HepG2 cells assessed as reduction in cell viability incubated for 72 hrs by MTT assay. Format: functional, cell-based. As to conditions: HepG2, 72 h.
Another data set relates to MCF7. Description: Cytotoxicity activity against human MCF7 cells assessed as reduction in cell viability incubated for 72 hrs by MTT assay. Format: functional, cell-based. As to conditions: MCF7, 72 h.
Data set [14] relates to A549. Nature of the data set: Cytotoxicity activity against human A549 cells assessed as reduction in cell viability incubated for 72 hrs by MTT assay. Format: functional, cell-based. As to conditions: A549, 72 h.

As to `[O-][n+]1onc2c3cc[nH]c3ccc21`, the IC50 was determined as 0.69 µM in the data set with HCT-15 and 2.06 µM with HCT-116.
As to `C/C=C1\CN(C)[C@H]2Cc3c([nH]c4ccccc34)[C@@H](c3ccc4[nH]c5c(c4c3OC)CCN3C[C@H]4CC[C@H]5[C@H]3[C@@H]4CC)C[C@H]1[C@@H]2C(=O)OC`, the IC50 in the data set on A549 [1] is 6.8 µM; in the data set on HT-29 [2], 0.93 µM.
As to `CC[C@@]12CCCN3CCc4c(n(c5ccccc45)[C@H](c4ccc5c(c4)[C@@]46CCN7CCC[C@]8(CC[C@]4(C[C@@H]8C(=O)OC)N5)[C@H]76)C1)[C@H]32`, the concentration for half-maximal inhibition (IC50) in the data set with KB [3] was 7.8 µM.
As for `COc1ccc2[nH]cc(C(=O)C(=O)N[C@@H]3c4cc5c(cc4[C@@H](c4cc(OC)c(OC)c(OC)c4)[C@H]4C(=O)OC[C@@H]43)OCO5)c2c1`, the IC50 at 2 h in data set [4] turned out to be 15.1 µM; in [6], 26.1 µM. Besides, the IC50 with KB [5] is 1.01 µM; with K562/A02, 4.71 µM.
In the case of `CCOC(=O)c1c(-c2ccc(F)cc2)oc2ccc(OCCCCCCN3C(=O)C(=O)c4cc(OC)ccc43)cc12`, the concentration for half-maximal inhibition (IC50) in the data set with A549 [7] amounted to 76.9 µM.
Regarding `COc1cc([C@@H]2c3cc4c(cc3[C@H](OC(=O)c3ccc5cc[nH]c5c3)[C@H]3COC(=O)[C@H]23)OCO4)cc(OC)c1OC`, the IC50 was determined as 0.245 µM in the data set with K562/Adr, 0.043 µM with K562 [8] and 0.019 µM in the data set on K562 [9].
With `Fc1ccc(C2=NCc3c([nH]c4ccccc34)S2)cc1`, the IC50 with A2780 was 9.3 µM.
Consider `CCc1c(CO)c(CO)c2n1Cc1c(c3ccccc3n1C)C2`, for which the Activity is given as 30% with NCI-H1650 [10], 73% in the data set on PC-9, 65% in the data set on NCI-H460 and 26% in the data set with NCI-H1975. Besides, the figures for the half-maximal inhibitory concentration (IC50) in the data set on NCI-H1650 [11] and with CCRF-CEM were 3.5 µM and 0.41 µM, respectively.
`CC(=O)O[C@]1(C)CO[C@@]23CC[C@@]4(C)[C@@](O)(CC[C@H]5Cc6c([nH]c7cc(Cl)ccc67)[C@@]54C)C2=CC(=O)[C@@H]1O3`: the concentration for half-maximal inhibition (IC50) in the data set on PC-3 was 4.86 µM; with CWR22R it was 3.8 µM.
Consider `C/C=C1\CN2CC[C@@]34c5c(ccc6c5OC5OC[C@@H]7[C@@H](C[C@H]8c9c(c%10ccccc%10n9C)C[C@@H]7N8C)[C@@H]5[C@@H]6C)N(C)[C@H]3[C@@H]2C[C@H]1[C@@H]4C(=O)OC` (stereo not given in full), for which the 50% inhibitory concentration (IC50) with PC-3 was 7.2 µM; with HT-29 [2] it was 0.3 µM.
As for `COc1cccc2c1C(=O)c1c(O)c3c(c(O)c1C2=O)C[C@@](O)(C(=O)CO)C[C@@H]3O[C@H]1C[C@H](N)[C@H](O)[C@H](C)O1` [DOXORUBICIN], the IC50 with HT-29 [12] was 1.48 µM; in the data set with K562 [13], more than 168 µM.
Regarding `CCC1CN(C)[C@H]2Cc3c([nH]c4ccccc34)[C@@H](n3c4c(c5c(OC)c([C@H]6C[C@H]7[C@H](CC)CN(C)[C@@H](Cc8c6[nH]c6ccccc86)[C@H]7C(=O)OC)ccc53)CCN3C[C@H]5CC[C@H]4[C@H]3[C@@H]5CC)C[C@@H]1[C@@H]2C(=O)OC` (single isomer, unassigned), the IC50 turned out to be 11.4 µM in the data set with HT-29 [12], 12.6 µM in the data set with HepG2, 11.3 µM with MCF7 and 10.2 µM in the data set with A549 [14].
